In one data set the test system is HIV-1 (IIIB isolate). The data set can be described thus: Anti-HIV activity in H9 lymphocytes (p24 antigen ELISA). The data set is classed as cell-based. Conditions: H-9 lymphocytes; for Anti-HIV Activity EC50: HIV-1 IIIB, p24 ELISA, day 5, average of at least two experiments; for Therapeutic Index (TI = IC50/EC50): ratio of IC50 to EC50; for anti-viral activity (in words): summary of Table 1. On the procedure:
(§1) The biological evaluation of HIV-1 inhibition was carried out according to established protocols, (Kashiwada, Y., et al., J. Med. Chem. 39:1016-1017 (1996); Hashimoto, F., et al., Bioorg. & Med. Chem. 5:2133-2143 (1997)). The T cell line, H9, was maintained in continuous culture log-phase growth in complete medium (RPMI 1640 with 10% fetal calf serum supplemented with L-glutamine at 5% CO2 and 37° C.). Test samples were first dissolved in dimethyl sulfoxide at a concentration of 10 mg/ml to generate master stocks with dilutions made into tissue culture media to generate working stocks. The following drug concentrations were used routinely for screening: 50, 5, and 0.5 μg/mL. For agents found to be active, additional dilutions were prepared for subsequent testing so that an accurate EC50 value (defined below) could be determined. As the test samples were being prepared, an aliquot of the H9 cell line was infected with HIV-1 (IIIB isolate) while a second aliquot was mock-infected with complete medium. […] An amount of virus equal to approximately 6.25×10^4 TCID50 was added to the first aliquot of 3.5×10^6H9 cells. The second aliquot received tissue culture medium only, and these mock-infected cells were used for toxicity determinations (IC50 defined below). After a 4 h incubation at 37° C. and 5% CO2, both cell populations were washed three times with fresh medium and then added to the appropriate wells of a 96-well plate containing various concentrations of the test drug or tissue culture medium (positive infected control/negative drug control). In addition, AZT was assayed during each experiment as a positive drug control. The plates were incubated at 37° C. and 5% CO2 for 5 days. Cell-free culture supernatants were collected on Day 5 for use in a p24 antigen-capture ELISA assay to determine virus replication. p24 is the core protein of HIV and therefore is an indirect measure of the amount of virus present in the culture supernatants. Toxicity was determined using a viable dye method (XTT) on mock-infected H9 cells that were treated with test sample, AZT or no drug. If a test sample suppressed viral replication and was toxic to less than 50% of the cells, its effects were reported in the following terms: IC50, the concentration of test sample which was toxic to 50% of the mock-infected H9 cells; EC50, the concentration of the test sample which was able to suppress HIV replication by 50%; and Therapeutic Index (TI), the ratio of IC50 to EC50.
(§2) Compounds of the present invention were assayed for anti-HIV activity according to the following assay procedures. The T cell line, H9, and the promonocytic cell line, U937, were maintained separately in continuous culture with complete medium (RPMI 1640 with 10% fetal calf serum) at 5% CO2 and 37° C. The cell lines were used in experiments only when in the logarithmic phase of growth, whereas uninfected peripheral blood mononuclear cells (PBMCs) were first stimulated with PHA (1 μg/mL) for three days. All cell targets were incubated with HIV-1 (IIIB isolate, 1×10^6 TCID50/mL) for one hour at 37° C. and 5% CO2. The cell lines and PBMCs were washed thoroughly to remove unadsorbed virions and resuspended at 4×10^5 cells/mL in complete medium or complete medium with 10% v/v interleukin 2 (IL-2), respectively. […] aliquots were placed into wells of 96-well tissue culture plates containing an equal volume of test compounds (diluted in the appropriate culture medium). The toxicity of each compound was assessed by determining the viability of compound-exposed uninfected cells after five days at 37° C. and 5% CO2. A p24 antigen ELISA assay was used to determine the level of virus released in the medium of the HIV-infected cultures. The p24 antigen assay used a HIV-1 anti-p24 specific monoclonal antibody as the capture antibody coated onto 96-well plates. […]

A further data set relates to mock-infected H9 cells. The data set can be described thus: Cytotoxicity in mock-infected (uninfected) H9 cells. The data set is classed as cell-based. As for the experimental part: as §1, §2

Where two headings read alike, the source gives them in different places.

With `CC1(C)Oc2ccc3cc(CBr)c(=O)oc3c2[C@@H](OC(=O)[C@@]23CC[C@@](C)(C(=O)O2)C3(C)C)[C@H]1OC(=O)[C@@]12CC[C@@](C)(C(=O)O1)C2(C)C` (relative stereo) [Compound 1, (3′R,4′R)-3′,4′-Di-O-(S)-(−)-camphanoyl-3-bromomethyl-(+)-cis-khellactone], in the data set on HIV-1 (IIIB isolate), the “Anti-HIV Activity EC50” value is 0.0854 µg/mL and the “Therapeutic Index (TI = IC50/EC50)” value was 40. Also, in the data set on mock-infected H9 cells, the “Cytotoxicity IC50” value stood at 3.38 µg/mL.

On to `CC1(C)Oc2ccc3cc(C(Br)Br)c(=O)oc3c2[C@@H](OC(=O)[C@@]23CCC(C)(C(=O)O2)C3(C)C)[C@H]1OC(=O)[C@@]12CCC(C)(C(=O)O1)C2(C)C` (relative stereo) [Compound 2, (3′R,4′R)-3′,4′-Di-O-(S)-(−)-camphanoyl-3-dibromomethyl-(+)-cis-khellactone], for which, in the data set with HIV-1 (IIIB isolate), the “Anti-HIV Activity EC50” value amounted to 0.000119 µg/mL, the “anti-viral activity (in words)” value is listed as “most potent” and the “Therapeutic Index (TI = IC50/EC50)” value was 26,890. Also, the “Cytotoxicity IC50” value in the data set with mock-infected H9 cells amounted to 3.20 µg/mL.

With `Cc1c(CBr)c(=O)oc2c3c(ccc12)OC(C)(C)[C@H](OC(=O)[C@@]12CC[C@@](C)(C(=O)O1)C2(C)C)[C@@H]3OC(=O)[C@@]12CC[C@@](C)(C(=O)O1)C2(C)C` (relative stereo) [Compound 3, (3′R,4′R)-3′,4′-Di-O-(S)-(−)-camphanoyl-3-bromomethyl-4-methyl-(+)-cis-khellactone], in the data set on HIV-1 (IIIB isolate), the “Anti-HIV Activity EC50” value came out at 0.000192 µg/mL, the “anti-viral activity (in words)” value was “most potent” and the “Therapeutic Index (TI = IC50/EC50)” value is 101,000. In addition, the “Cytotoxicity IC50” value in the data set on mock-infected H9 cells was found to be 19.4 µg/mL.

Take `CC1(C)Oc2c(CBr)cc3ccc(=O)oc3c2[C@@H](OC(=O)[C@@]23CCC(C)(C(=O)O2)C3(C)C)[C@H]1OC(=O)[C@@]12CCC(C)(C(=O)O1)C2(C)C` (relative stereo) [Compound 4, (3′R,4′R)-3′,4′-Di-O-(S)-(−)-camphanoyl-6-bromomethyl-(+)-cis-khellactone]: in the data set with HIV-1 (IIIB isolate), the “Anti-HIV Activity EC50” value was 0.0176 µg/mL and the “Therapeutic Index (TI = IC50/EC50)” value is recorded as 113. In addition, the “Cytotoxicity IC50” value with mock-infected H9 cells stood at 1.99 µg/mL.

On to `Cc1cc(=O)oc2c3c(c(C(Br)Br)cc12)OC(C)(C)[C@H](OC(=O)[C@@]12CCC(C)(C(=O)O1)C2(C)C)[C@@H]3OC(=O)[C@@]12CCC(C)(C(=O)O1)C2(C)C` (relative stereo) [Compound 5, (3′R,4′R)-3′,4′-Di-O-(S)-(−)-camphanoyl-6-dibromomethyl-4-methyl-(+)-cis-khellactone], for which, in the data set with HIV-1 (IIIB isolate), the “Anti-HIV Activity EC50” value is 0.0215 µg/mL and the “Therapeutic Index (TI = IC50/EC50)” value was 81.8. Further, in the data set on mock-infected H9 cells, the “Cytotoxicity IC50” value worked out at 1.76 µg/mL.

Consider `Cc1cc(=O)oc2c3c(c(CBr)cc12)OC(C)(C)[C@H](OC(=O)[C@@]12CC[C@@](C)(C(=O)O1)C2(C)C)[C@@H]3OC(=O)[C@@]12CC[C@@](C)(C(=O)O1)C2(C)C` (relative stereo) [Compound 6, (3′R,4′R)-3′,4′-Di-O-(S)-(−)-camphanoyl-6-bromomethyl-4-methyl-(+)-cis-khellactone], for which, in the data set on HIV-1 (IIIB isolate), the “Anti-HIV Activity EC50” value stood at 0.025 µg/mL and the “Therapeutic Index (TI = IC50/EC50)” value is recorded as 1,000. The “Cytotoxicity IC50” value in the data set with mock-infected H9 cells worked out at 25.00 µg/mL.

As for `CC(=O)OCc1cc2ccc3c(c2oc1=O)[C@@H](OC(=O)[C@@]12CCC(C)(C(=O)O1)C2(C)C)[C@@H](OC(=O)[C@@]12CCC(C)(C(=O)O1)C2(C)C)C(C)(C)O3` (relative stereo) [Compound 7, (3′R,4′R)-3′,4′-Di-O-(S)-(−)-camphanoyl-3-acetoxymethyl-(+)-cis-khellactone], in the data set on HIV-1 (IIIB isolate), the “Anti-HIV Activity EC50” value was 0.00103 µg/mL, the “anti-viral activity (in words)” value is reported as “most potent” and the “Therapeutic Index (TI = IC50/EC50)” value was 3,243. In addition, in the data set with mock-infected H9 cells, the “Cytotoxicity IC50” value was determined as 3.34 µg/mL.

On to `CC(=O)OCc1c(C)c2ccc3c(c2oc1=O)[C@@H](OC(=O)[C@@]12CC[C@@](C)(C(=O)O1)C2(C)C)[C@@H](OC(=O)[C@@]12CC[C@@](C)(C(=O)O1)C2(C)C)C(C)(C)O3` (relative stereo) [Compound 8, (3′R,4′R)-3′,4′-Di-O-(S)-(−)-camphanoyl-3-acetoxymethyl-4-methyl-(+)-cis-khellactone], for which, in the data set with HIV-1 (IIIB isolate), the “Anti-HIV Activity EC50” value was found to be 0.00012 µg/mL, the “anti-viral activity (in words)” value is reported as “most potent” and the “Therapeutic Index (TI = IC50/EC50)” value was 157,000. Further, in the data set with mock-infected H9 cells, the “Cytotoxicity IC50” value was 18.80 µg/mL.

For `CC(=O)OCc1cc2c(C)cc(=O)oc2c2c1OC(C)(C)[C@H](OC(=O)[C@@]13CCC(C)(C(=O)O1)C3(C)C)[C@@H]2OC(=O)[C@@]12CCC(C)(C(=O)O1)C2(C)C` (relative stereo) [Compound 9, (3′R,4′R)-3′,4′-Di-O-(S)-(−)-camphanoyl-6-acetoxymethyl-4-methyl-(+)-cis-khellactone], in the data set with HIV-1 (IIIB isolate), the “Anti-HIV Activity EC50” value came to 0.275 µg/mL and the “Therapeutic Index (TI = IC50/EC50)” value is 78.9. For the same compound, the “Cytotoxicity IC50” value in the data set on mock-infected H9 cells is 21.70 µg/mL.

Consider `CC1(C)Oc2ccc3cc(CO)c(=O)oc3c2[C@@H](OC(=O)[C@@]23CCC(C)(C(=O)O2)C3(C)C)[C@H]1OC(=O)[C@@]12CCC(C)(C(=O)O1)C2(C)C` (relative stereo) [Compound 10, (3′R,4′R)-3′,4′-Di-O-(S)-(−)-camphanoyl-3-hydroxymethyl-(+)-cis-khellactone], for which, in the data set on HIV-1 (IIIB isolate), the “Anti-HIV Activity EC50” value turned out to be 0.000188 µg/mL, the “anti-viral activity (in words)” value is on record as “most potent” and the “Therapeutic Index (TI = IC50/EC50)” value is 188,032. Also, the “Cytotoxicity IC50” value with mock-infected H9 cells stood at 35.35 µg/mL.

On to `Cc1cc(=O)oc2c3c(c(CO)cc12)OC(C)(C)[C@H](OC(=O)[C@@]12CCC(C)(C(=O)O1)C2(C)C)[C@@H]3OC(=O)[C@@]12CCC(C)(C(=O)O1)C2(C)C` (relative stereo) [Compound 12, (3′R,4′R)-3′,4′-Di-O-(S)-(−)-camphanoyl-6-hydroxymethyl-4-methyl-(+)-cis-khellactone], for which, in the data set with HIV-1 (IIIB isolate), the “Anti-HIV Activity EC50” value was 0.000625 µg/mL, the “anti-viral activity (in words)” value is recorded as “most potent” and the “Therapeutic Index (TI = IC50/EC50)” value is 30,900. Besides, in the data set on mock-infected H9 cells, the “Cytotoxicity IC50” value is 19.3 µg/mL.

For the compound `COP(=O)(OC)OCc1cc2c(C)cc(=O)oc2c2c1OC(C)(C)[C@H](OC(=O)[C@@]13CCC(C)(C(=O)O1)C3(C)C)[C@@H]2OC(=O)[C@@]12CCC(C)(C(=O)O1)C2(C)C` (relative stereo) [Compound 13, (3′R,4′R)-3′,4′-Di-O-(S)-(−)-camphanoyl-6-(dimethylphosphate)methyl-4-methyl-(+)-cis-khellactone], in the data set on HIV-1 (IIIB isolate), the “Anti-HIV Activity EC50” value was 0.504 µg/mL and the “Therapeutic Index (TI = IC50/EC50)” value is on record as 3.79. In addition, the “Cytotoxicity IC50” value with mock-infected H9 cells (uninfected H9 cells, five days, average of at least two experiments) came to 1.91 µg/mL.

For `CC1(C)Oc2ccc3cc(CN)c(=O)oc3c2[C@@H](OC(=O)[C@@]23CC[C@@](C)(C(=O)O2)C3(C)C)[C@H]1OC(=O)[C@@]12CC[C@@](C)(C(=O)O1)C2(C)C` (relative stereo) [Compound 14, (3′R,4′R)-3′,4′-Di-O-(S)-(−)-camphanoyl-3-aminomethyl-(+)-cis-khellactone], the “Anti-HIV Activity EC50” value with HIV-1 (IIIB isolate) stood at 0.39 µg/mL. Moreover, the “Cytotoxicity IC50” value with mock-infected H9 cells was determined as 32.81 µg/mL.

`Cc1cc(=O)oc2c3c(c(CN)cc12)OC(C)(C)[C@H](OC(=O)[C@@]12CC[C@@](C)(C(=O)O1)C2(C)C)[C@@H]3OC(=O)[C@@]12CC[C@@](C)(C(=O)O1)C2(C)C` (relative stereo) [Compound 15, (3′R,4′R)-3′,4′-di-O-(S)-(−)-camphanoyl-6-aminomethyl-4-methyl-(+)-cis-khellactone]: in the data set with HIV-1 (IIIB isolate), the “Anti-HIV Activity EC50” value stood at 0.001 µg/mL, the “anti-viral activity (in words)” value is reported as “most potent” and the “Therapeutic Index (TI = IC50/EC50)” value is on record as 24,100. Also, in the data set with mock-infected H9 cells, the “Cytotoxicity IC50” value was determined as 24.1 µg/mL.

The values are drawn from US6768007B2, “Substituted 3′,4′-di-O-camphanoyl-(+)-cis-khellactone analogs, compositions thereof, and methods for using thereof” (Panacos Pharmaceuticals, Inc., priority 2001, dated 2004).
